Measurements taken from ChEMBL document CHEMBL1156829 (Proc Natl Acad Sci U S A, 2008).

Experiments:
Plasmodium falciparum [1] = assay: NOVARTIS: Inhibition of Plasmodium falciparum 3D7 (drug-susceptible) proliferation in erythrocyte-based infection assay; assay type: functional, organism-based; details: Plasmodium falciparum, 3D7
[2] = NOVARTIS: Cytotoxicity against human hepatocellular carcinoma cell line (Huh7); assay type: toxicity, cell-based, Huh-7; details: Huh7 cells (hepatocellular carcinoma cell line)
Plasmodium falciparum [3] = assay: NOVARTIS: Inhibition of Plasmodium falciparum W2 (drug-resistant) proliferation in erythrocyte-based infection assay; assay type: functional, organism-based
[4] = Plasmodium falciparum, W2, read-out: EC50

SMILES	EC50 (Plasmodium falciparum [1]) [nM]	CC50 [2] [µM]	EC50 (Plasmodium falciparum [3]; [4]) [nM]	EC50 (Plasmodium falciparum [3])
COC(=O)C1=C(C)NC2=C(C(=O)CC(c3ccccc3Cl)C2)C1c1ccc(OC)c(OC)c1 (configuration not stated)	1290	> 100	478	–
C/C(Cl)=C/Cc1c(C)nc2c(ccc3ccccc32)c1O	857	> 10	1280	–
FC(F)(F)c1ccccc1NC(=S)N1CCCN(c2nc3ccc(Cl)cc3s2)CC1	119	77.8	146	–
Cc1noc(C)c1S(=O)(=O)N(Cc1ccccc1)CC(O)CN1CCC(NC(=O)c2ccccc2Cl)C1 (configuration not stated)	256	> 10	99.7	–
COc1ccc(C2CC(c3ccccc3Cl)n3ncnc3N2C(=O)C2CC2)cc1 (configuration not stated)	1320	> 10	> 1280	–
COc1cc2nc(C3CCC3)n(NC(=O)c3cccc(F)c3)c(=O)c2cc1OC	> 1250	> 10	> 1060	–
CC(C)Cc1nc(N2CCOCC2)c2nnn(Cc3ccccc3)c2n1	3030	> 100	1650	–
CN(Cc1ccccc1)C(=O)CCNS(=O)(=O)c1cc(Br)cnc1N	614	> 10	355	–
CCCOC(=O)C1=C(C)NC2=C(C(=O)CC(c3ccc(Cl)cc3)C2)C1c1ccc(Cl)cc1 (configuration not stated)	294	> 69.8	398	–
COc1cc(NC(C)CCCN(Cc2ccc(Cl)cc2)C(=O)Nc2ccc(Cl)cc2Cl)c2ncccc2c1 (configuration not stated)	416	5.6	< 17.1	–
Clc1ccccc1C(c1ccccc1)(c1ccccc1)n1ccnc1 [CLOTRIMAZOLE]	280	25.8	338	–
N#Cc1cccc(C=CC(=O)O)c1	> 12500	> 100	1220	–
C[n+]1ccn(-c2ccc(C(=O)c3ccc(-n4cc[n+](C)c4)cc3)cc2)c1	33.5	> 10	29.4	–
O=C(Nc1ccc(Oc2ccc(OC(F)(F)F)cc2)cc1)C1CC1	1670	> 100	2770	–
COc1ccc(-c2noc(-c3cccc(I)c3)n2)cc1OC	> 1740	> 13.6	> 873	–
COc1ccccc1C=CC1=NC(=Cc2ccc(SC)cc2)C(=O)O1	2040	> 100	2510	–
CCOC(=O)C1=C(C)N=c2sc(=Cc3cc(Br)ccc3O)c(=O)n2C1c1ccc(OC)c(OC)c1 (configuration not stated)	2100	> 100	814	–
CCC(=O)N(C1=C(NC)C(=O)c2ccccc2C1=O)C(C)C	8.99	0.563	36.5	–
Cc1cccc(NC(=O)c2ccc(NCCCC3CCCCCC3)c([N+](=O)[O-])c2)c1	441	18.8	643	–
O=C(Nc1ccc2c(c1)CN(C1CCSCC1)CC2)C1(c2ccccc2)CC1	> 12500	> 100	> 5530	–
CCN(CC)S(=O)(=O)c1ccc(C(=O)c2c(C)c(C(=O)C(F)(F)F)c3ccccn23)cc1	3150	> 100	2020	–
CC1=C(C(=O)OCC(C)C)C(c2ccc(OCc3ccccc3)cc2)C2=C(CC(c3ccccc3)CC2=O)N1 (configuration not stated)	961	> 100	659	–
CC(=O)N(C1=C(N2CCCCC2)C(=O)c2ccccc2C1=O)c1ccc(F)cc1	155	33.3	34.5	–

SMILES	EC50 (Plasmodium falciparum [1]) [nM]	CC50 [2] [µM]	EC50 (Plasmodium falciparum [3]; [4]) [nM]	EC50 (Plasmodium falciparum [3])
CC[C@@H]1CN2CC[C@H]1C[C@H]2[C@H](O)c1ccnc2ccc(OC)cc12	103	> 6.25	298	–
CC(=O)Nc1ccc(NC(=O)C(C)(C)CCl)cc1	> 1000	> 10.5	62.1	–
Cc1ccc(F)cc1NC(=O)c1cc(Cl)ccc1Nc1ccccc1	191	> 100	115	–
Oc1c2c(nc3cc(-c4ccc(Cl)cc4)nn13)CCCC2	6480	> 100	> 12500	–
COc1cc(OC)cc(C(=O)NCC2Cc3cc(Cl)cc(-c4ccncc4)c3O2)c1 (configuration not stated)	368	44.1	537	–
CCCOc1ccc(C(=O)Nc2cccc(-c3nc4ncccc4o3)c2)cc1	415	> 10	> 1750	–
COc1ccc(C(=O)N(C)CCCNc2ccnc3cc(Cl)ccc23)cc1	797	> 10	553	–
COc1ccccc1N1C(=N)SC(=Cc2ccc(N(C)C)cc2)C1=O	101	2.21	52.5	–
CCC(C)(C)C1CCc2c(sc(NC(=O)c3ccc(F)cc3)c2C(N)=O)C1 (configuration not stated)	> 1250	> 10	2340	–
COc1cccc(CN2CCc3nc(N4CCCCC4)sc3C2)c1	520	> 10	216	–
CCCN1CCC(NC(c2ccccc2)c2ccc(Cl)cc2)CC1 (configuration not stated)	753	20.2	51.9	–
CCCCC(=O)Nc1ccccc1-c1nnn(CC(=O)Nc2ccc3c(c2)OCCO3)n1	> 1140	> 10	> 1670	–
Cc1ccc(S(=O)(=O)NCCCCNc2ccnc3cc(Cl)ccc23)cc1	575	> 9.02	< 20.4	–
CC1CC(C)(C)NC(=S)N1CCC(=O)NCCc1ccccc1 (configuration not stated)	1010	> 10	> 1250	–
O=C(Nc1cccc(OC(=O)c2ccc([N+](=O)[O-])cc2)c1)c1ccc([N+](=O)[O-])cc1	> 12500	> 100	270	–
Cc1ccc2nc3nc4c(C)cccc4c(N)c3cc2c1	102	6.94	157	–
N#Cc1cc(N2CC3CC(C2)c2cccc(=O)n2C3)c([N+](=O)[O-])cc1C#N (configuration not stated)	> 12500	> 100	3360	–
CCOC(=O)c1oc2cc(O)c(CC)cc2c(=O)c1-c1ccc2c(c1)OCO2	> 834	> 10	> 1250	–
CCC1(C)CC(CCNCc2ccccc2O)(c2ccccc2OC)CCO1 (configuration not stated)	348	23.9	96.1	–
O=C(CCCc1nc(-c2ccccc2)no1)NCc1cccnc1	> 1770	> 10	1130	–
Cc1cc(Nc2ccc(Cl)c(C)c2)n2nc(C)nc2n1	983	> 100	1000	–
O=C(Nc1ccc(Oc2ccccc2)cc1)NC(CN1CCCC1)c1ccccc1 (configuration not stated)	355	13.6	476	–
CCOc1ccc(-c2nc(NC(=O)CS(=O)(=O)c3ccccc3)sc2C)cc1	525	> 100	740	–

SMILES	EC50 (Plasmodium falciparum [1]) [nM]	CC50 [2] [µM]	EC50 (Plasmodium falciparum [3]; [4]) [nM]	EC50 (Plasmodium falciparum [3])
O=C(NN=CC1CC=CCC1)c1ccc([N+](=O)[O-])cc1Cl (configuration not stated)	> 1250	> 10	> 549	–
CCNC(=O)NS(=O)(=O)c1cnccc1Sc1cccc(C)c1	> 1030	> 10	> 1250	–
CC(C)(C)c1cc(CCC(=O)Nc2c3c(nc4ccccc24)N(c2cccc(Cl)c2)CC3)cc(C(C)(C)C)c1O	6650	> 100	–	No fit
CN1CCc2c(C#N)c(N3CCCC3)nc(N3CCCC3)c2C1	2120	> 100	4820	–
COc1ccc(Cn2c(SCC(=O)Nc3ccccc3OC)nc3ccsc3c2=O)cc1	> 778	> 10	> 1250	–
COc1ccc(Nc2nc(NN=Cc3cc4c(cc3Br)OCO4)nc(Nc3ccc([N+](=O)[O-])cc3)n2)cc1	460	> 100	684	–
CCCCOc1ccc(C2C3CCCC=C3C(C#N)=C(N)C2(C#N)C#N)cc1 (configuration not stated)	3470	57.7	1480	–
COC(=O)C1=C(C)NC2=C(C(=O)CC(c3ccc(OC)c(OC)c3)C2)C1c1ccc(Cl)cc1Cl (configuration not stated)	169	> 100	14.3	–
Cc1cc(C)c2c(c1)OC(N)(C(Cl)(Cl)Cl)CC2=O (configuration not stated)	435	> 100	260	–
Cc1ccc(C2C3=C(CC(C)(C)CC3=O)N(Cc3ccc4c(c3)OCO4)C3=C2C(=O)CC(C)(C)C3)cc1	3750	> 100	1770	–
O=C(C=Cc1ccccc1)NNC(=O)c1cccnc1	> 12500	> 100	1010	–
CN1CCN(CCCNc2ccnc3cc4ccccc4cc23)CC1	24.1	5.93	78.5	–
CCOc1cc(C2CC(=O)NC3=C2C(=O)CC(c2ccc(OC)c(OC)c2)C3)ccc1O (configuration not stated)	781	> 100	155	–
CC(=O)c1ccc(N2CCN(Cc3cc(-c4ccnc5cc(Cl)ccc45)ccc3O)CC2)cc1	2810	> 100	228	–
CC(=O)Nc1nc(C)c(-c2csc(Nc3ccc(Br)cc3)n2)s1	696	38.1	859	–
Cc1ccn2c(NC(C)(C)CC(C)(C)C)c(-c3ccccc3OC(=O)C3CCCC3)nc2c1	1010	> 10	< 8.29	–
CCOc1cc(Br)cc(C=C2NC(=S)NC2=O)c1O	> 3680	> 100	554	–
COc1c([N+](=O)[O-])cc2c(c1Br)OC1(C=C2)N(C)c2ccccc2C1(C)C (configuration not stated)	1740	> 10	> 1570	–
CCN(CC)CCCNC(=S)N(Cc1cc2ccc(OC)cc2[nH]c1=O)C1CCCCC1	4030	40.8	1120	–
CCSc1nc2sc3c(c2c(=O)n1-c1ccccc1)CCN(Cc1ccccc1)C3	85.8	> 68.4	34.8	–
OC(COc1ccc(OCC(O)CN2CCN(CCOc3ccccc3)CC2)cc1)CN1CCN(CCOc2ccccc2)CC1 (configuration not stated)	> 11000	> 100	853	–
COc1ccc(C2C(C(=O)O)c3ccccc3C(=O)N2c2ccc(C)cc2)cc1OC (configuration not stated)	> 1080	> 10	> 1250	–
Cc1ccc(CN2CCN(Cc3cn(C(C)C)c4ccccc34)CC2CCO)o1 (configuration not stated)	> 12500	> 100	4210	–
